# From patent publication US6844344B2, “Benzofuran derivatives” (Eli Lilly and Company, priority 1999, dated 2005)
# Where a name gives a salt, the structure may show the parent alone.
row,SMILES,melting point
1,"COc1cccc2sc(C3CCN(C[C@H](O)COc4cccc5oc(C)cc45)C(C)(C)C3)cc12 (single isomer, unassigned; isomer 1) (as salt: hydrochloride) [Example 34]",101.1 °C (dec.)
2,"Cc1cc2c(OC[C@@H](O)CN3CC[C@H](c4cc5cc(Cl)ccc5s4)C[C@H]3C)cccc2o1 (as salt: salt) [Example 33, (2S)-(−)-3-[(2R,4S)-4-(5-Chloro-benzo[b]thiophen-2-yl)-2-methylpiperidin-1-yl]-1-(2-methylbenzofuran-4-yl)oxy-2-propanol]",81.4 °C (dec.)
3,"COc1cccc2sc([C@H]3CCN(C[C@H](O)COc4cccc5oc(C)cc45)[C@H](C)C3)cc12 (as salt: oxalate) [Example 29, (2S)-(+)-3-[(2R,4S)-4-(4-Methoxybenzo[b]thiophen-2-yl)-2-methylpiperidin-1-yl]-1-(2-methylbenzofuran-4-yl)oxy-2-propanol]",92.5 °C (dec.)
4,"COc1cccc2sc([C@H]3CCN(C[C@H](O)COc4cccc5oc(C)cc45)[C@@H](C)C3)cc12 (as salt: oxalate) [Example 27, (2S)-(+)-3-[(2S,4S)-4-(4-Methoxybenzo[b]thiophen-2-yl)-2-methylpiperidin-1-yl]-1-(2-methylbenzofuran-4-yl)oxy-2-propanol]",98 °C (dec.)
5,"COc1cccc2sc([C@@H]3CCN(C[C@H](O)COc4cccc5c4OC(C)(C)C5)[C@@H](C)C3)cc12.O=C(O)C(=O)O [Example 9, (2S)-1-(2,3-Dihydro-2,2-dimethylbenzofuran-7-yl)oxy-3-[(2S,4R)-4-(4-methoxybenzo[b]thiophen-2-yl)-2-methylylpiperidinyl]-2-propanol Oxalate]",83 to 86 °C
6,"COc1cccc2sc(C3CCN(C[C@H](O)COc4cccc5c4OC(C)(C)C5)[C@@H](C)C3)cc12.O=C(O)C(=O)O (stereo in doubt) [Example 8, (2S)-(+)-1-(2,3-Dihydro-2,2-dimethylbenzofuran-7-yl)oxy-3-[(2S, 4R)-4-(4-methoxybenzo[b]thiophen-2-yl)-2-methylpiperidinyl]-2-propanol Oxalate]",145 to 148 °C
7,"COc1cccc2sc(C3CCN(C[C@H](O)COc4cccc5oc(C)cc45)C(C)(C)C3)cc12 (single isomer, unassigned; isomer 2) (as salt: hydrochloride) [Example 35]",83.5 °C (dec.)
8,"Cc1cc2c(OC[C@@H](O)CN3CC[C@@H](c4cc5cc(Cl)ccc5s4)C[C@@H]3C)cccc2o1 (as salt: salt) [Example 32, (2S)-3-[(2S,4R)-4-(5-Chlorobenzo[b]thiophen-2-yl)-2-methylpiperidin-1-yl]-1-(2-methylbenzofuran-4-yl)oxy-2-propanol]",78.5 °C (dec.)
9,"Cc1cc2c(OC[C@@H](O)CN3CC[C@H](c4cc5cc(Cl)ccc5s4)C[C@@H]3C)cccc2o1 (as salt: salt) [Example 31, (2S)-3-[(2S,4S)-4-(5-Chlorobenzo[b]thiophen-2-yl)-2-methylpiperidin-1-yl]-1-(2-methylbenzofuran-4-yl)oxy-2-propanol]",204.1 to 208.3 °C
10,"Cc1cc2c(OC[C@@H](O)CN3CC[C@@H](c4cc5cc(Cl)ccc5s4)C[C@H]3C)cccc2o1 (as salt: salt) [Example 30, (2S)-(−)-3-[(2R,4R)-4-(5-Chlorobenzo[b]thiophen-2-yl)-2-methylpiperidin-1-yl]-1-(2-methylbenzofuran-4-yl)oxy-2-propanol]",88.5 °C (dec.)
11,"COc1ccc2cc([C@@H]3CCN(C[C@H](O)COc4cccc5occc45)[C@@H](C)C3)sc2c1.O=C(O)C(=O)O [Example 4, (2S)-1-(Benzofuran-4-yl)oxy-3-[(2S,4R)-4-(6-methoxybenzo[b]thiophen-2-yl)-2-methylpiperidinyl]-2-propanol Oxalate]",130 to 133 °C
12,"COc1cccc2sc([C@@H]3CCN(C[C@H](O)COc4cccc5c4OC(C)(C)C5)[C@H](C)C3)cc12.O=C(O)C(=O)O [Example 7, (2S)-(−)-1-(2,3-Dihydro-2,2-dimethylbenzofuran-7-yl)oxy-3-[(2R,4R)-4-(4-methoxybenzo[b]thiophen-2-yl)-2-methylpiperidinyl]-2-propanol Oxalate]",88 to 93 °C
13,"COc1cccc2sc([C@@H]3CCN(C[C@H](O)COc4cccc5oc(C)cc45)[C@H](C)C3)cc12 (as salt: oxalate) [Example 26, (2S)-(−)-3-[(2R,4R)-4-(4-Methoxybenzo[b]thiophen-2-yl)-2-methylpiperidin-1-yl]-1-(2-methylbenzofuran-4-yl)oxy-2-propanol]",101.2 to 109.5 °C
14,"COc1cccc2sc([C@@H]3CCN(C[C@H](O)COc4cccc5oc(C)cc45)[C@@H](C)C3)cc12 (as salt: oxalate) [Example 28, (2S)-(−)-3-[(2S,4R)-4-(4-Methoxybenzo[b]thiophen-2-yl)-2-methylpiperidin-1-yl]-1-(2-methylbenzofuran-4-yl)oxy-2-propanol]",99.2 to 103 °C
15,"COc1ccc2cc([C@@H]3CCN(C[C@H](O)COc4cccc5occc45)[C@H](C)C3)sc2c1.O=C(O)C(=O)O [Example 2, (2S)-(−)-1-(Benzofuran-4-yl)oxy-3-[(2R,4R)-4-(6-methoxybenzo[b]thiophen-2-yl)-2-methylpiperidinyl]-2-propanol Oxalate]",97 to 102 °C (dec.)
16,"O=C(O)C(=O)O.O[C@H](COc1cccc2occc12)CN1CCC(c2cc3ccc(F)cc3s2)CC1 [Example 6, (2S)-(+)-1-(Benzofuran-4-yl)oxy-3-[4-(6-fluorobenzo[b]thiophen-2-yl)piperidinyl]-2-propanol Oxalate]",196 to 198 °C (dec.)
17,"COc1ccc2cc([C@H]3CCN(C[C@H](O)COc4cccc5occc45)[C@@H](C)C3)sc2c1.O=C(O)C(=O)O [Example 3, (2S)-(+)-1-(Benzofuran-4-yl)oxy-3-[(2S.4S)-4-(6-methoxybenzo[b]thiophen-2-yl)-2-methylpiperidinyl]-2-propanol Oxalate]",97 to 102 °C
18,"COc1cccc2sc([C@H]3CCN(C[C@H](O)COc4cccc5c4OC(C)(C)C5)[C@H](C)C3)cc12.O=C(O)C(=O)O [Example 10, (2S)-1-(2,3-Dihydro-2,2-dimethylbenzofuran-7-yl)oxy-3-[(2R,4S)-4-(4-methoxybenzo[b]thiophen-2-yl)-2-methylpiperidinyl]-2-propanol Oxalate]",93 to 96 °C
